Assay results published in ChEMBL document CHEMBL2029312, “The antibacterial activity of 4,4'-bipyridinium amphiphiles with conventional, bicephalic and gemini architectures” (Bioorg Med Chem Lett, 2012).

What was measured:
Staphylococcus aureus [1] = experiment: Antibacterial activity against Staphylococcus aureus subsp. aureus ATCC 29213 after 72 hrs by broth microdilution method; format: functional
Pseudomonas aeruginosa [2] = experiment: Antibacterial activity against Pseudomonas aeruginosa Boston 41501 ATCC 27853 after 72 hrs by broth microdilution method; format: functional
Enterococcus faecalis [3] = experiment: Antibacterial activity against Enterococcus faecalis ATCC 29212 after 72 hrs by broth microdilution method; format: functional
Escherichia coli [4] = experiment: Antibacterial activity against Escherichia coli ATCC 25922 after 72 hrs by broth microdilution method; format: functional
[5] = Solubility of the compound in water; format: physicochemical; settings: buffer
Enterococcus faecalis [6] = experiment: Ratio of benzalkonium chloride MIC to compound MIC for Enterococcus faecalis ATCC 29212; format: functional
Staphylococcus aureus [7] = experiment: Ratio of benzalkonium chloride MIC to compound MIC for Staphylococcus aureus subsp. aureus ATCC 29213; format: functional
Escherichia coli [8] = experiment: Ratio of benzalkonium chloride MIC to compound MIC for Escherichia coli ATCC 25922; format: functional
Pseudomonas aeruginosa [9] = experiment: Ratio of benzalkonium chloride MIC to compound MIC for Pseudomonas aeruginosa Boston 41501 ATCC 27853; format: functional
[10] = Staphylococcus aureus, ATCC 29213, 72 h, read-out: MIC
[11] = Pseudomonas aeruginosa, Boston 41501 ATCC 27853, 72 h, read-out: MIC
[12] = Enterococcus faecalis, ATCC 29212, 72 h, read-out: MIC
[13] = Escherichia coli, ATCC 25922, 72 h, read-out: MIC

| Compound | MIC (Staphylococcus aureus [1]) [µM] | MIC (Pseudomonas aeruginosa [2]) [µM] | MIC (Enterococcus faecalis [3]) [µM] | MIC (Escherichia coli [4]) [µM] | solubility [5] | MIC (Staphylococcus aureus [1]; [10]) [µM] | MIC (Pseudomonas aeruginosa [2]; [11]) [µM] | MIC (Enterococcus faecalis [3]; [12]) [µM] | MIC (Escherichia coli [4]; [13]) [µM] | Ratio (Enterococcus faecalis [6]) | Ratio (Staphylococcus aureus [7]) | Ratio (Escherichia coli [8]) | Ratio (Pseudomonas aeruginosa [9]) |
| --- | --- | --- | --- | --- | --- | --- | --- | --- | --- | --- | --- | --- | --- |
| CCCCCCCCCCC[n+]1ccc(-c2cc[n+](CCCCCCCCCCC)cc2)cc1.[Cl-].[Cl-] | 2 | 8 | 2 | 2 |  |  |  |  |  |  |  |  |  |
| CCCCCCCCCCCCCCCCCC[n+]1ccc(-c2cc[n+](CCCCCCCCCCCCCCCCCC)cc2)cc1.[Br-].[Br-] |  |  |  |  | Insoluble | > 250 | > 250 | > 250 | > 250 |  |  |  |  |
| CCCCCCCC[n+]1ccc(-c2cc[n+](CCCCCCCC)cc2)cc1 |  |  |  |  |  | 125 | > 250 | 250 | > 250 |  |  |  |  |
| CCCCCCCCCCCCCCCC[n+]1ccc(-c2cc[n+](CC)cc2)cc1.[Br-].[Br-] |  |  |  |  | Insoluble | 16 | 250 | 63 | 63 |  |  |  |  |
| CCCCCCCCCCC[n+]1ccc(-c2cc[n+](CCCCCCCCCCC)cc2)cc1.[Br-].[Br-] |  | 16 | 2 | 2 |  | 2 |  |  |  | 4 | 4 | 4 | 4 |
| CCCCCCCCCCCCCCCC[n+]1ccc(-c2ccncc2)cc1.[Br-] |  |  |  |  | Insoluble | 8 | > 250 | 16 | 63 |  |  |  |  |
| CCCCCCCCCCCCCCCC[n+]1ccc(-c2cc[n+](CCCCCCCCCCCCCCCC)cc2)cc1.[I-].[I-] | >250 | >250 | >250 | >250 | Insoluble |  |  |  |  |  |  |  |  |
| CCCCCCCCCCCCCCCCCC[n+]1ccc(-c2cc[n+](C)cc2)cc1.[Br-].[I-] |  |  |  |  | Insoluble | 8 | 63 | 31 | 31 |  |  |  |  |
| CCCCCCCCCCCC[n+]1ccc(-c2cc[n+](CC)cc2)cc1 |  |  |  |  |  | 63 | > 250 | 250 | 250 |  |  |  |  |
| CCCCCCCCCCCCCCCC[n+]1ccc(-c2cc[n+](CCCCCCCCCCCCCCCC)cc2)cc1.[Cl-].[Cl-] | >250 | >250 | >250 | >250 | Insoluble |  |  |  |  |  |  |  |  |
| CCCCCCCCCCCCCC[n+]1ccc(-c2cc[n+](C)cc2)cc1.[Br-].[I-] |  |  |  |  | Insoluble | 4 | 125 | 31 | 63 |  |  |  |  |
| CCCCCCCCCCCC[n+]1ccc(-c2ccncc2)cc1 |  |  |  |  |  | 16 | > 250 | 63 | 63 |  |  |  |  |
| CCCCCCCCCCCCCCCCCCCC[n+]1ccc(-c2cc[n+](C)cc2)cc1.[Br-].[I-] |  |  |  |  | Insoluble | 16 | > 250 | 31 | 125 |  |  |  |  |
| CCCCCCCCCCCCCC[n+]1ccc(-c2cc[n+](CC)cc2)cc1 |  |  |  |  |  | 8 | 250 | 31 | 63 |  |  |  |  |
| C[n+]1ccc(-c2cc[n+](C)cc2)cc1 |  |  |  |  |  | > 250 | > 250 | > 250 | > 250 |  |  |  |  |
| CCCCCCCCCCC[n+]1ccc(-c2cc[n+](CCCCCCCCCCC)cc2)cc1.[I-].[I-] | 4 | 63 | 8 | 8 | Insoluble |  |  |  |  |  |  |  |  |
| CCCCCCCCCCCCCCCC[n+]1ccc(-c2cc[n+](C)cc2)cc1.[Br-].[I-] |  |  |  |  | Insoluble | 4 | 125 | 31 | 31 |  |  |  |  |
| CCCCCCCCCCCCCCCCCC[n+]1ccc(-c2ccncc2)cc1.[Br-] |  |  |  |  | Insoluble | 16 | > 250 | 31 | > 250 |  |  |  |  |
| CCCCCCCCCCCCCCCCCCCC[n+]1ccc(-c2ccncc2)cc1.[Br-] |  |  |  |  | Insoluble | > 250 | > 250 | > 250 | > 250 |  |  |  |  |
| CCCCCCCCCCCC[n+]1ccc(-c2cc[n+](C)cc2)cc1.[Br-].[I-] |  |  |  |  | Insoluble | 31 | 250 | 63 | 125 |  |  |  |  |
| CCCCCCCCCCCCCC[n+]1ccc(-c2ccncc2)cc1 |  |  |  |  |  | 8 | 125 | 16 | 31 |  |  |  |  |
| CCCCCCCCCCCCCCCC[n+]1ccc(-c2cc[n+](CCCCCCCCCCCCCCCC)cc2)cc1.[Br-].[Br-] |  |  |  |  | Insoluble | 250 | > 250 | > 250 | > 250 |  |  |  |  |

Continued, in another order:

| MIC (Staphylococcus aureus [1]) [µM] | MIC (Pseudomonas aeruginosa [2]) [µM] | MIC (Enterococcus faecalis [3]) [µM] | MIC (Escherichia coli [4]) [µM] | solubility [5] | MIC (Staphylococcus aureus [1]; [10]) [µM] | MIC (Pseudomonas aeruginosa [2]; [11]) [µM] | MIC (Enterococcus faecalis [3]; [12]) [µM] | MIC (Escherichia coli [4]; [13]) [µM] | Compound | Ratio (Enterococcus faecalis [6]) | Ratio (Staphylococcus aureus [7]) | Ratio (Escherichia coli [8]) | Ratio (Pseudomonas aeruginosa [9]) |
| --- | --- | --- | --- | --- | --- | --- | --- | --- | --- | --- | --- | --- | --- |
| 2 | 16 | 4 | 4 |  |  |  |  |  | CCCCCCCCCCCC[n+]1ccc(-c2cc[n+](CCCCCCCCCCCC)cc2)cc1.[Cl-].[Cl-] |  |  |  |  |
|  |  |  |  | Insoluble | 16 | > 250 | 31 | 250 | CCCCCCCCCCCCCC[n+]1ccc(-c2cc[n+](CCCCCCCCCCCCCC)cc2)cc1.[Br-].[Br-] |  |  |  |  |
|  |  |  |  |  | 8 | 125 | 31 | 31 | CCCCCCCCCCCCCCCCCC[n+]1ccc(-c2cc[n+](CC)cc2)cc1 |  |  |  |  |
| 2 | 63 | 4 | 8 |  |  |  |  |  | CCCCCCCCCC[n+]1ccc(-c2cc[n+](CCCCCCCCCC)cc2)cc1.[Cl-].[Cl-] |  |  |  |  |
|  |  |  |  |  | 2 | 16 | 2 | 2 | CCCCCCCCCCCCCC[n+]1ccc(-c2cc[n+](CCCCCCCC)cc2)cc1 |  |  |  |  |
|  |  |  |  |  | 2 | 63 | 4 | 8 | CCCCCCCCCC[n+]1ccc(-c2cc[n+](CCCCCCCCCC)cc2)cc1 |  |  |  |  |
| 2 |  | 4 | 4 |  |  | 31 |  |  | CCCCCCCCCCCC[n+]1ccc(-c2cc[n+](CCCCCCCCCCCC)cc2)cc1.[Br-].[Br-] |  |  |  |  |
|  |  |  |  |  | 2 | 31 | 8 | 8 | CCCCCCCCCCCCCCCC[n+]1ccc(-c2cc[n+](CCCCCC)cc2)cc1 |  |  |  |  |
|  |  |  |  |  | 16 | > 250 | 31 | 125 | CCCCCCCCCCCCCCCCCCCC[n+]1ccc(-c2cc[n+](CC)cc2)cc1 |  |  |  |  |
|  |  |  |  |  | 2 | 8 | 2 | 2 | CCCCCCCCCCCC[n+]1ccc(-c2cc[n+](CCCCCCCCCC)cc2)cc1 |  |  |  |  |
|  |  |  |  |  | 8 | 125 | 31 | 31 | CCCCCCCCCCCCCCCCCC[n+]1ccc(-c2cc[n+](CCCC)cc2)cc1 |  |  |  |  |
|  |  |  |  | Insoluble | 8 | 250 | 8 | 16 | CCCCCCCCCCCCC[n+]1ccc(-c2cc[n+](CCCCCCCCCCCCC)cc2)cc1.[Br-].[Br-] |  |  |  |  |
| 8 | 31 | 16 | 16 | Insoluble |  |  |  |  | CCCCCCCCCCCC[n+]1ccc(-c2cc[n+](CCCCCCCCCCCC)cc2)cc1.[I-].[I-] |  |  |  |  |
| 2 | 63 | 4 | 8 | Insoluble |  |  |  |  | CCCCCCCCCC[n+]1ccc(-c2cc[n+](CCCCCCCCCC)cc2)cc1.[I-].[I-] |  |  |  |  |
